Here are results for six compounds from patent publication EP0096013A1, “Salts of erythromycin showing a combined therapeutic activity, process for their preparation and pharmaceutical formulations containing them” (NUOVO CONSORZIO SANITARIO NAZIONALE, priority 1982, dated 1983).

In brackets after ≈: the same amount, converted by molar mass. Read-outs that look alike come from different tables or passages of the source.

Data set [1] concerns Streptococcus beta-haemolyticus. Nature of the data set: in vitro antibacterial activity (MIC) against hospital strains. The class given is cell-based.
The nature of data set [2]: solubility in ethanol.
Data set [3] in a line: solubility in water. In kind it is physicochemical. Conditions: parts of water needed to dissolve the salt.
The mark [4] stands for this setting: Streptococcus beta-haemolyticus strain A (hospital strain).
[5] abbreviates: Streptococcus beta-haemolyticus strain D (hospital strain).
Setting [6] is: Streptococcus beta-haemolyticus strain B (hospital strain).
The mark [7] stands for this setting: Streptococcus beta-haemolyticus strain C (hospital strain).

With `CC[C@H]1OC(=O)[C@H](C)[C@@H](O[C@H]2C[C@@](C)(OC)[C@@H](O)[C@H](C)O2)[C@H](C)[C@@H](O[C@@H]2O[C@H](C)C[C@H](N(C)C)[C@H]2O)[C@](C)(O)C[C@@H](C)C(=O)[C@H](C)[C@@H](O)[C@]1(C)O` [Erythromycin base, erythromycin A, reference compound], the MIC in data set [1] (setting [4]) is 5 µg⁻¹ mL⁻¹; in data set [1] (setting [5]), 0.6 µg⁻¹ mL⁻¹; in data set [1] (Streptococcus, Streptococcus beta-haemolyticus strain C (hospital strain)), 0.6 µg/mL (≈ 0.818 µM).

Turning to `CCC(=O)O[C@H]1[C@H](O[C@@H]2[C@@H](C)[C@H](O[C@H]3C[C@@](C)(OC)[C@@H](O)[C@H](C)O3)[C@@H](C)C(=O)O[C@H](CC)[C@@](C)(O)[C@H](O)[C@@H](C)C(=O)[C@H](C)C[C@@]2(C)O)O[C@H](C)C[C@@H]1N(C)C` [Propionylerythromycin base, propionic ester (2'-.propanoate) of erythromycin A, reference compound], the MIC in data set [1] (Streptococcus, Streptococcus beta-haemolyticus strain A (hospital strain), read-out: MIC) worked out at 2.5 µg/mL (≈ 3.16 µM); in data set [1] (Streptococcus, Streptococcus beta-haemolyticus strain B (hospital strain), read-out: MIC), 0.6 µg/mL (≈ 0.759 µM); in data set [1] (Streptococcus, Streptococcus beta-haemolyticus strain C (hospital strain), read-out: MIC), 0.6 µg/mL (≈ 0.759 µM); in data set [1] (Streptococcus, Streptococcus beta-haemolyticus strain D (hospital strain), read-out: MIC), 0.6 µg/mL (≈ 0.759 µM).

Turning to `CCC(=O)O[C@H]1[C@H](O[C@@H]2[C@@H](C)[C@H](O[C@H]3C[C@@](C)(OC)[C@@H](O)[C@H](C)O3)[C@@H](C)C(=O)O[C@H](CC)[C@@](C)(O)[C@H](O)[C@@H](C)C(=O)[C@H](C)C[C@@]2(C)O)O[C@H](C)C[C@@H]1N(C)C` [Propionylerythromycin (+)-alpha-mercapto-propionyl-glycinate] [Propionylerythromycin (+)-alpha-mercaptopropionyl-glycinate], the “soluble in p. ethanol 95% v/v” value in data set [2] was found to be 2 p. Besides, the MIC in data set [1] (setting [4]) was determined as 5 µg⁻¹ mL⁻¹; in data set [1] (setting [6]), 0.3 µg⁻¹ mL⁻¹; in data set [1] (setting [7]) it was 0.3 µg⁻¹ mL⁻¹; in data set [1] (setting [5]), 0.3 µg⁻¹ mL⁻¹. In data set [3], the “soluble in p. water” value is listed as 90 p.

`CCC(=O)O[C@H]1[C@H](O[C@@H]2[C@@H](C)[C@H](O[C@H]3C[C@@](C)(OC)[C@@H](O)[C@H](C)O3)[C@@H](C)C(=O)O[C@H](CC)[C@@](C)(O)[C@H](O)[C@@H](C)C(=O)[C@H](C)C[C@@]2(C)O)O[C@H](C)C[C@@H]1N(C)C` [propionylerythromycin (-)-alpha-propionyl-glycinate]: the “soluble in p. ethanol 95% v/v” value in data set [2] came to 2 p. The “soluble in p. water” value in data set [3] is reported as 60 p.

On to `CCC(=O)O[C@H]1[C@H](O[C@@H]2[C@@H](C)[C@H](O[C@H]3C[C@@](C)(OC)[C@@H](O)[C@H](C)O3)[C@@H](C)C(=O)O[C@H](CC)[C@@](C)(O)[C@H](O)[C@@H](C)C(=O)[C@H](C)C[C@@]2(C)O)O[C@H](C)C[C@@H]1N(C)C` [Propionylerythromycin acetylsalicylate], for which the “soluble in p. ethanol 95% v/v” value in data set [2] stood at 4 p. Besides, the MIC was determined as 5 µg⁻¹ mL⁻¹ in data set [1] (setting [4]), 0.3 µg⁻¹ mL⁻¹ in data set [1] (setting [6]), 0.3 µg⁻¹ mL⁻¹ in data set [1] (setting [7]) and 0.3 µg⁻¹ mL⁻¹ in data set [1] (setting [5]). In data set [3], the “soluble in p. water” value stood at 300 p.

For `CC[C@H]1OC(=O)[C@H](C)[C@@H](O[C@H]2C[C@@](C)(OC)[C@@H](O)[C@H](C)O2)[C@H](C)[C@@H](O[C@@H]2O[C@H](C)C[C@H](N(C)C)[C@H]2O)[C@](C)(O)C[C@@H](C)C(=O)[C@H](C)[C@@H](O)[C@]1(C)O` [Erythromycin acetylsalicylate], the MIC stood at 0.6 µg⁻¹ mL⁻¹ in data set [1] (setting [6]), 0.3 µg⁻¹ mL⁻¹ in data set [1] (setting [7]) and 0.075 µg⁻¹ mL⁻¹ in data set [1] (setting [5]). For the same compound, the “soluble in p. water” value in data set [3] is 100 p.
